Reference: patent US9877956B2, “Antiviral compounds and methods of use thereof” (Trana Discovery, Inc., priority 2014, dated 2018)
Values after ≈ are worked out from the molar mass of the structure shown. Values joined by “and” are separate entries in the source; they are usually repeats but may differ in a detail not shown here. Equal values may be shown once.

Columns and labels:
Type in all cases: cell-based
HUMAN PBMCS = assay: Cytotoxicity in human PBMCs (XTT); conditions: for TOXICITY VALUES (XTT - O.D. @ 450/650 nm), SAMPLE: individual samples, listed as Trana 154
Protocol: (§1) In these studies, PHA-P stimulated PBMCs from three donors were pooled together and re-suspended in fresh tissue culture medium at 1×10^6 cells/mL and plated in the interior wells of a 96 well round bottom microplate at 50µl/well. A 100µL volume of 9 concentrations of compound serially diluted were transferred to the round-bottom 96 well plate containing the cells in triplicate. Fifty microliters (µL) of HIV-1 at a pre-determined dilution was added. Each plate contained cell control wells and virus control wells in parallel with the experimental wells. After 7 days in culture, efficacy was evaluated by measuring the reverse transcriptase in the culture supernatants and the cells were stained with the tetrazolium dye XTT to evaluate cytotoxicity.

HIV-1/Ba-L = assay: Inhibition of HIV-1 Ba-L replication in PBMC (RT values); conditions: for % VC: RT relative to virus control; for RT Values (cpm), SAMPLE: individual samples
Protocol: These compounds were further screened for activity in HIV-1-infected peripheral blood mononuclear cells (PBMC). The data (experiments were repeated, so duplicates are shown) is summarized in the tables below, and also in FIGS. 4A-B and 5A-B.
The HIV strain was HIV-1/Ba-L. The titer was 0.1 μL/well.

HIV-1 92/HT/599 = HIV-1 92/HT/599 replication in human PBMCs, reverse transcriptase in culture supernatants (RLU); conditions: 0.32 μg/ml
Protocol: as §1

SMILES: c1ccc(N/N=C2/CCc3ccccc3N2)cc1 [HIT #154]
- % Cell Viability (HUMAN PBMCS; 0.32 μg/ml): 92.64%
- Cytotoxicity Test Values Mean OD @ 450/650 nm (HUMAN PBMCS; 0.32 μg/ml): 1.038 OD
- TOXICITY VALUES (XTT - O.D. @ 450/650 nm), SAMPLE (HUMAN PBMCS; 0.32 μg/ml): 0.9729 O.D. and 1.0510 O.D. and 1.0896 O.D.
- % Cell Viability (HUMAN PBMCS; 1 μg/ml): 87.74%
- Cytotoxicity Test Values Mean OD @ 450/650 nm (HUMAN PBMCS; 1 μg/ml): 0.983 OD
- TOXICITY VALUES (XTT - O.D. @ 450/650 nm), SAMPLE (HUMAN PBMCS; 1 μg/ml): 0.9683 O.D. and 1.0187 O.D. and 0.9670 O.D.
- % Cell Viability (HUMAN PBMCS; 3.16 μg/ml): 88.82%
- Cytotoxicity Test Values Mean OD @ 450/650 nm (HUMAN PBMCS; 3.16 μg/ml): 0.995 OD
- TOXICITY VALUES (XTT - O.D. @ 450/650 nm), SAMPLE (HUMAN PBMCS; 3.16 μg/ml): 0.9103 O.D. and 1.0889 O.D. and 0.9881 O.D.
- % Cell Viability (HUMAN PBMCS; 9.99 μg/ml): 99.35%
- Cytotoxicity Test Values Mean OD @ 450/650 nm (HUMAN PBMCS; 9.99 μg/ml): 1.113 OD
- TOXICITY VALUES (XTT - O.D. @ 450/650 nm), SAMPLE (HUMAN PBMCS; 9.99 μg/ml): 1.1959 O.D. and 0.9242 O.D. and 1.2189 O.D.
- % Cell Viability (HUMAN PBMCS; 31.6 μg/ml): 64.38%
- Cytotoxicity Test Values Mean OD @ 450/650 nm (HUMAN PBMCS; 31.6 μg/ml): 0.721 OD
- TOXICITY VALUES (XTT - O.D. @ 450/650 nm), SAMPLE (HUMAN PBMCS; 31.6 μg/ml): 0.6103 O.D. and 0.6005 O.D. and 0.7620 O.D.
- % Cell Viability (HUMAN PBMCS; 100 μg/ml): 46.94%
- Cytotoxicity Test Values Mean OD @ 450/650 nm (HUMAN PBMCS; 100 μg/ml): 0.526 OD
- TOXICITY VALUES (XTT - O.D. @ 450/650 nm), SAMPLE (HUMAN PBMCS; 100 μg/ml): 0.4574 O.D. and 0.5742 O.D. and 0.5461 O.D.
- TC 25% (HUMAN PBMCS; human PBMCs, XTT): 22.3 µg/mL (≈ 94 µM)
- TC50 (TC 50%) (HUMAN PBMCS; human PBMCs, XTT): 81.7 µg/mL (≈ 344 µM)
- TC 95% (HUMAN PBMCS; human PBMCs, XTT): >100 µg/mL
- RT Values (cpm), MEAN (HIV-1/Ba-L; 0.01 μM): 29112.2 cpm
- % VC (HIV-1/Ba-L; 0.01 μM): 98.8%
- RT Values (cpm), SAMPLE (HIV-1/Ba-L; 0.01 μM): 31907 cpm and 25645 cpm and 29785 cpm
- RT Values (cpm), MEAN (HIV-1/Ba-L; 0.03 μM): 29394.5 cpm
- % VC (HIV-1/Ba-L; 0.03 μM): 99.8%
- RT Values (cpm), SAMPLE (HIV-1/Ba-L; 0.03 μM): 28419 cpm and 27673 cpm and 32092 cpm
- RT Values (cpm), MEAN (HIV-1/Ba-L; 0.10 μM): 28793.5 cpm
- % VC (HIV-1/Ba-L; 0.10 μM): 97.8%
- RT Values (cpm), SAMPLE (HIV-1/Ba-L; 0.10 μM): 24503 cpm and 28356 cpm and 33522 cpm
- RT Values (cpm), MEAN (HIV-1/Ba-L; 0.32 μM): 28067.5 cpm
- % VC (HIV-1/Ba-L; 0.32 μM): 95.3%
- RT Values (cpm), SAMPLE (HIV-1/Ba-L; 0.32 μM): 30361 cpm and 24204 cpm and 29638 cpm
- RT Values (cpm), MEAN (HIV-1/Ba-L; 1.00 μM): 19065.5 cpm
- % VC (HIV-1/Ba-L; 1.00 μM): 64.7%
- RT Values (cpm), SAMPLE (HIV-1/Ba-L; 1.00 μM): 18120 cpm and 21373 cpm and 17704 cpm
- RT Values (cpm), MEAN (HIV-1/Ba-L; 3.16 μM): 15141.8 cpm
- % VC (HIV-1/Ba-L; 3.16 μM): 51.4%
- RT Values (cpm), SAMPLE (HIV-1/Ba-L; 3.16 μM): 12447 cpm and 16921 cpm and 16058 cpm
- RT Values (cpm), MEAN (HIV-1/Ba-L; 10.0 μM): 12407.5 cpm
- % VC (HIV-1/Ba-L; 10.0 μM): 42.1%
- RT Values (cpm), SAMPLE (HIV-1/Ba-L; 10.0 μM): 13978 cpm and 10363 cpm and 12882 cpm
- RT Values (cpm), MEAN (HIV-1/Ba-L; 31.6 μM): 9086.8 cpm
- % VC (HIV-1/Ba-L; 31.6 μM): 30.9%
- RT Values (cpm), SAMPLE (HIV-1/Ba-L; 31.6 μM): 10815 cpm and 7472 cpm and 8974 cpm
- RT Values (cpm), MEAN (HIV-1/Ba-L; 100 μM): 2467.8 cpm
- % VC (HIV-1/Ba-L; 100 μM): 8.4%
- RT Values (cpm), SAMPLE (HIV-1/Ba-L; 100 μM): 3062 cpm and 2720 cpm and 1622 cpm
- IC 95% (HIV-1/Ba-L; HIV-1 Ba-L in PBMC): 65.1 µM and >100 µM
- ANTIVIRAL INDEX (AI) 95% (HIV-1/Ba-L; TC/IC at 95%): >1.54
- % Virus Control (HIV-1 92/HT/599): 84.00%
- Antiviral Test Values Mean RLU (HIV-1 92/HT/599): 16201.3 RLU
